In patent US6410556B1, “Modulators of protein tyrosine phosphateses (PTPases)” (Novo Nordisk A/S, priority 1999, dated 2002):

Target: T1, truncated form of PTP1B (first 321 amino acids) (Homo sapiens, UniProt P18031)
T1 construct: a truncated form of PTPI B (corresponding to the first 321 amino acids); made in house; host or cells: E. coli
T1 sequence (P18031 1-321 limits assumed): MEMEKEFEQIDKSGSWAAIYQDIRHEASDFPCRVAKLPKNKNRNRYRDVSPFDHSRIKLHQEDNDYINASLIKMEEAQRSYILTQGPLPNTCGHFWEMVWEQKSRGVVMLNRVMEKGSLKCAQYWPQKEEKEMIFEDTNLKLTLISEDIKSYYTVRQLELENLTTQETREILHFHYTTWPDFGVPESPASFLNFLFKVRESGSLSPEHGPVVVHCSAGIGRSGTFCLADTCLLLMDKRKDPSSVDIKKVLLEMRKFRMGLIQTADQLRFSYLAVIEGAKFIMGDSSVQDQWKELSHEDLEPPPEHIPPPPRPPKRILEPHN
Test: Inhibition of PTP1B, p-nitrophenyl phosphate substrate, enzyme kinetic analysis
Format: biochemical
Conditions: truncated PTP1B expressed in E. coli; substrate p-nitrophenyl phosphate 0.16 to 10 mM; 50 mM HEPES pH 7.0; 25° C., 60 minutes
Description: The compounds are evaluated for biological activity with a truncated form of PTPI B (corresponding to the first 321 amino acids), which was expressed in E. coli and purified to apparent homogeneity using published procedures well-known to those skilled in the art. The enzyme reactions are carried out using standard conditions essentially as described by Burke et al. (Biochemistry 35; 15989-15996 (1996)). The assay conditions are as follows. Appropriate concentrations of the compounds of the invention are added to the reaction mixtures containing different concentrations of the substrate, p-nitrophenyl phosphate (range: 0.16 to 10 mM—final assay concentration). The buffer used was 50 mM HEPES pH 7.0, 100 mM sodium chloride, 0.1% (w/v) bovine serum albumin, 5 mM glutathione, and 1 mM EDTA. The reaction was started by addition of the enzyme and carried out in microtiter plates at 25° C. for 60 minutes. The reactions are stopped by addition of NaOH. The enzyme activity was determined by measurement of the absorbance at 405 nm with appropriate corrections for absorbance at 405 nm of the compounds and p-nitrophenyl phosphate. The data are analyzed using nonlinear regression fit to classical Michaelis Menten enzyme kinetic models. Inhibition is expressed as Ki values in nM.

Structure (SMILES) | Ki [nM]
O=C(O)C(=O)Nc1sc2c(c1C(=O)O)CC(CN1Cc3c(O)cccc3C1=O)NC2 (stereo not shown) [Example 8, 5-(4-Hydroxy-1-oxo-1,3-dihydro-isoindol-2-ylmethyl)-2-(oxalyl-amino)-4,5,6,7-tetrahydro-thieno[2,3-c]pyridine-3-carboxylic acid] | 250
O=C(O)C(=O)Nc1sc2c(c1C(=O)O)CC(CNC1=NS(=O)(=O)c3ccccc31)NC2 (stereo not shown) [Example 10, 5-((1,1-Dioxo-1H-benzo[d]isothiazol-3-ylamino)methyl)-2-(oxalyl-amino)-4,5,6,7-tetrahydro-thieno[2,3-c]pyridine-3-carboxylic acid] | 270
O=C(O)C(=O)Nc1sc2c(c1C(=O)O)CCNC2CNC1=NS(=O)(=O)c2ccccc21 (stereo not shown) [Example 11, 7-((1,1-Dioxo-1H-benzo[d]isothiazol-3-ylamino)methyl)-2-(oxalyl-amino)-4,5,6,7-tetrahydro-thieno[2,3-c]pyridine-3-carboxylic acid] | 240
COc1cccc2c1C(=O)N(CC1Cc3c(sc(NC(=O)C(=O)O)c3C(=O)O)CN1)C2 (stereo not shown) [Example 12, 5-(7-Methoxy-1-oxo-1,3-dihydro-isoindol-2-ylmethyl)-2-(oxalyl-amino)-4,5,6,7-tetrahydro-thieno[2,3-c]pyridine-3-carboxylic acid] | 570
O=C(O)C(=O)Nc1sc2c(c1C(=O)O)CC(CNC(=O)C(=O)c1c[nH]c3ccccc13)NC2 (stereo not shown) [Example 36, 5-((2-(1H-indol-3-yl)-2-oxo-acetylamino)methyl)-2-(Oxalyl-amino)-4,5,6,7-tetrahydro-thieno[2,3-c]pyridine-3-carboxylic acid] | 830
CC(=O)N(Cc1ccc(Oc2ccccc2)cc1)C[C@@H]1NCCc2c1sc(NC(=O)C(=O)O)c2C(=O)O [Example 42, 7-(S)-((Acetyl-(4-phenoxy-benzyl)amino)methyl)-2-(oxalyl-amino)-4,5,6,7-tetrahydro-thieno[2,3-c]pyridine-3-carboxylic acid] | 220
COC(=O)c1cc(OC)cc2c1CN(CC1Cc3c(sc(NC(=O)C(=O)O)c3C(=O)O)CN1)C2=O (stereo not shown) [Example 46, 5-(6-Methoxy-4-methoxycarbonyl-1-oxo-1 ,3-dihydro-isoindol-2-ylmethyl)-2-(oxalyl-amino)-4,5,6,7-tetrahydro-thieno[2,3-c]pyridine-3-carboxylic acid] | 300
